Laboratory results from patent publication US7160888B2, “[1,8]naphthyridin-2-ones and related compounds for the treatment of schizophrenia” (Warner Lambert Company LLC, priority 2003, dated 2007).

Biological target: D2 receptor (Homo sapiens, UniProt P14416)
Experiment: [3H]Thymidine uptake assay for D2 intrinsic activity
Type: cell-based
Conditions: Table 1; test compound 1 μM; 1 μM Quinpirole = 100% intrinsic activity

Sequence of D2 receptor (P14416 whole entry): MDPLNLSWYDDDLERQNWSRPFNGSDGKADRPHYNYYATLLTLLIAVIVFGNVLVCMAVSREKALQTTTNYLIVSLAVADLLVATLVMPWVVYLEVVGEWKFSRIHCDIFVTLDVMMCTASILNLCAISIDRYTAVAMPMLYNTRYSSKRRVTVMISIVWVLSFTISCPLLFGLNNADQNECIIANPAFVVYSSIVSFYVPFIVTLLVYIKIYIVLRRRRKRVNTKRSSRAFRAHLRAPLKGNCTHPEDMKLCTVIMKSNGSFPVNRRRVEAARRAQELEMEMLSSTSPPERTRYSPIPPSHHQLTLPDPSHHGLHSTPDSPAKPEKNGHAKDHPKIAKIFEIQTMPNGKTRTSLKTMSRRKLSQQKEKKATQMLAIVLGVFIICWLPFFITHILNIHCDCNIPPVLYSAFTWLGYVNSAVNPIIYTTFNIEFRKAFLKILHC

SMILES | Emax at 1 µM
Cc1cc(N2CCN(CCCCOc3ccc4ccc(=O)[nH]c4n3)CC2)c(Cl)cc1F [Example B7, 7-{4-[4-(2-Chloro-4-fluoro-5-methyl-phenyl)-piperazin-1-yl]-butoxy}-1H-[1,8]naphthyridin-2-one] | 28%
Cc1c(F)ccc(N2CCN(CCCCOc3ccc4ccc(=O)[nH]c4n3)CC2)c1Cl [Example B8, 7-{4-[4-(2-Chloro-4-fluoro-3-methyl-phenyl)-piperazin-1-yl]-butoxy}-1H-[1,8]naphthyridin-2-one] | 17%
CC(C)Oc1ccc(Cl)cc1N1CCN(CCCCOc2ccc3ccc(=O)[nH]c3n2)CC1 [Example B9, 7-{4-[4-(5-Chloro-2-isopropoxy-phenyl)-piperazin-1-yl]-butoxy}-1H-[1,8]naphthyridin-2-one] | 23%
CC(C)Oc1ccccc1N1CCN(CCCCOc2ccc3ccc(=O)[nH]c3n2)CC1 [Example B10, 7-{4-[4-(2-Isopropoxy-phenyl)-piperazin-1-yl]-butoxy}-1H-[1,8]naphthyridin-2-one] | 34%
CC(C)COc1ccccc1N1CCN(CCCCOc2ccc3ccc(=O)[nH]c3n2)CC1 [Example B11, 7-{4-[4-(2-Isobutoxy-phenyl)-piperazin-1-yl]-butoxy}-1H-[1,8]naphthyridin-2-one] | 31%
O=c1ccc2ccc(OCCCCN3CCN(c4ccc(F)cc4)CC3)nc2[nH]1 [Example B13, 7-{4-[4-(4-Fluoro-phenyl)-piperazin-1-yl]-butoxy}-1H-[1,8]naphthyridin-2-one] | 45%
O=c1ccc2ccc(OCCCCN3CCN(c4ccc(F)c(Cl)c4)CC3)nc2[nH]1 [Example B14, 7-{4-[4-(3-Chloro-4-fluoro-phenyl)-piperazin-1-yl]-butoxy}-1H-[1,8]naphthyridin-2-one] | 37%
O=c1ccc2ccc(OCCCCN3CCN(c4cccc(C(F)(F)F)c4)CC3)nc2[nH]1 [Example B15, 7-{4-[4-(3-Trifluoromethyl-phenyl)-piperazin-1-yl]-butoxy}-1H-[1,8]naphthyridin-2-one] | 17%
O=c1ccc2ccc(OCCCCN3CCN(c4ccccc4C(F)(F)F)CC3)nc2[nH]1 [Example B16, 7-{4-[4-(2-Trifluoromethyl-phenyl)-piperazin-1-yl]-butoxy}-1H-[1,8]naphthyridin-2-one] | 41%
CC(F)(F)c1ccccc1N1CCN(CCCCOc2ccc3ccc(=O)[nH]c3n2)CC1 [Example B17, 7-(4-{4-[2-(1,1-Difluoro-ethyl)-phenyl]-piperazin-1-yl}-butoxy)-1H-[1,8]naphthyridin-2-one] | 43%
COc1cccc(N2CCN(CCCCOc3ccc4ccc(=O)[nH]c4n3)CC2)c1Cl [Example B18, 7-{4-[4-(2-Chloro-3-methoxy-phenyl)-piperazin-1-yl]-butoxy}-1H-[1,8]naphthyridin-2-one] | 32%
O=c1ccc2ccc(OCCCCN3CCN(c4cccc(Cl)c4F)CC3)nc2[nH]1 [Example B22, 7-{4-[4-(3-Chloro-2-fluoro-phenyl)-piperazin-1-yl]-butoxy}-1H-[1,8]naphthyridin-2-one] | 36%
O=c1ccc2ccc(OCCCCN3CCN(c4ccc(F)cc4Cl)CC3)nc2[nH]1 [Example B23, 7-{4-[4-(2-Chloro-4-fluoro-phenyl)-piperazin-1-yl]-butoxy}-1H-[1,8]naphthyridin-2-one] | 15%
O=c1ccc2ccc(OCCCCN3CCN(c4ccc(F)c(Cl)c4Cl)CC3)nc2[nH]1 [Example B24, 7-{4-[4-(2,3-Dichloro-4-fluoro-phenyl)-piperazin-1-yl]-butoxy}-1H-[1,8]naphthyridin-2-one] | 10%
O=c1ccc2ccc(OCCCCN3CCN(c4ccccc4-c4ccccc4)CC3)nc2[nH]1 [Example B26, 7-[4-(4-Biphenyl-2-yl-piperazin-1-yl)-butoxy]-1H-[1,8]naphthyridin-2-one] | 23%
COc1cccc(N2CCN(CCCCOc3ccc4ccc(=O)[nH]c4n3)CC2)c1C [Example B27, 7-{4-[4-(3-Methoxy-2-methyl-phenyl)-piperazin-1-yl]-butoxy}-1H-[1,8]naphthyridin-2-one] | 47%
O=c1ccc2ccc(OCCCCN3CCN(c4cccc(F)c4Cl)CC3)nc2[nH]1 [Example B28, 7-{4-[4-(2-Chloro-3-fluoro-phenyl)-piperazin-1-yl]-butoxy}-1H-[1,8]naphthyridin-2-one] | 31%
O=c1ccc2ccc(OCCCCN3CCN(c4cccc(C5CC5)n4)CC3)nc2[nH]1 [Example B29, 7-{4-[4-(6-Cyclopropyl-pyridin-2-yl)-piperazin-1-yl]-butoxy}-1H-[1,8]naphthyridin-2-one] | 32%
O=c1ccc2ccc(OCCCCN3CCN(c4ncccn4)CC3)nc2[nH]1 [Example B30, 7-[4-(4-Pyrimidin-2-yl-piperazin-1-yl)-butoxy]-1H-[1,8]naphthyridin-2-one] | 83%
COc1ccnc(N2CCN(CCCCOc3ccc4ccc(=O)[nH]c4n3)CC2)n1 [Example B31, 7-{4-[4-(4-Methoxy-pyrimidin-2-yl)-piperazin-1-yl]-butoxy}-1H-[1,8]naphthyridin-2-one] | 76%

Same assay, conditions: Table 2; test compound 1 μM; 1 μM Quinpirole = 100% intrinsic activity

SMILES | Emax at 1 µM
O=c1ccc2ccc(OCCCCN3CCN(c4cccc5c4OC4(CCCC4)CC5)CC3)nc2[nH]1 [Example B7′, 7-{4-[4-(3,4-Dihydrospiro[chromene-2,1′-cyclopentan]-8-yl)-piperazin-1-yl]-butoxy}-1H-[1,8]naphthyridin-2-one] | 48%
O=c1ccc2ccc(OCCCCN3CCN(c4cccc5c4OCC5)CC3)nc2[nH]1 [Example B8′, 7-{4-[4-(2,3-Dihydro-benzofuran-7-yl)-piperazin-1-yl]-butoxy}-1H-[1,8]naphthyridin-2-one] | 21%
CC1(C)Cc2cccc(N3CCN(CCCCOc4ccc5ccc(=O)[nH]c5n4)CC3)c2O1 [Example B9′, 7-{4-[4-(2,2-Dimethyl-2,3-dihydro-benzofuran-7-yl)-piperazin-1-yl]-butoxy}-1H-[1,8]naphthyridin-2-one] | 40%
O=c1ccc2ccc(OCCCCN3CCN(c4cccc5c4CCCO5)CC3)nc2[nH]1 [Example B10′, 7-[4-(4-Chroman-5-yl-piperazin-1-yl)-butoxy]-1H-[1,8]naphthyridin-2-one] | 22%
O=c1ccc2ccc(OCCCCN3CCN(c4cccc5c4CCO5)CC3)nc2[nH]1 [Example B11′, 7-{4-[4-(2,3-Dihydro-benzofuran-4-yl)-piperazin-1-yl]-butoxy}-1H-[1,8]naphthyridin-2-one] | 21%
O=c1ccc2ccc(OCCCCN3CCN(c4cccc5c4OCCO5)CC3)nc2[nH]1 [Example B12′, 7-{4-[4-(2,3-Dihydro-benzo[1,4]dioxin-5-yl)-piperazin-1-yl]-butoxy}-1H-[1,8]naphthyridin-2-one] | 24%
O=c1ccc2ccc(OCCCCN3CCN(c4cccc5c4OC(F)(F)O5)CC3)nc2[nH]1 [Example B13′, 7-{4-[4-(2,2-Difluoro-benzo[1,3]dioxol-4-yl)-piperazin-1-yl]-butoxy}-1H-[1,8]naphthyridin-2-one] | 33%
CC1(C)COc2c(cccc2N2CCN(CCCCOc3ccc4ccc(=O)[nH]c4n3)CC2)C1=O [Example B16′, 7-{4-[4-(3,3-Dimethyl-4-oxo-chroman-8-yl)-piperazin-1-yl]-butoxy}-1H-[1,8]naphthyridin-2-one] | 4%
O=c1ccc2ccc(OCCCCN3CCN(c4cccc5c4OCCCO5)CC3)nc2[nH]1 [Example B20′, 7-{4-[4-(3,4-Dihydro-2H-benzo[b][1,4]dioxepin-6-yl)-piperazin-1-yl]-butoxy}-1H-[1,8]naphthyridin-2-one] | 16%
O=c1ccc2ccc(OCCCCN3CCN(c4cccc5cccnc45)CC3)nc2[nH]1 [Example B21′, 7-[4-(4-Quinolin-8-yl-piperazin-1-yl)-butoxy]-1H-[1,8]naphthyridin-2-one] | 18%
O=c1ccc2ccc(OCCCCN3CCN(c4cccc5ncccc45)CC3)nc2[nH]1 [Example B22′, 7-[4-(4-Quinolin-5-yl-piperazin-1-yl)-butoxy]-1H-[1,8]naphthyridin-2-one] | 12%
O=c1ccc2ccc(OCCCCN3CCN(c4cccc5nccnc45)CC3)nc2[nH]1 [Example B23′, 7-[4-(4-Quinoxalin-5-yl-piperazin-1-yl)-butoxy]-1H-[1,8]naphthyridin-2-one] | 21%
O=c1ccc2ccc(OCCCCN3CCN(c4cccc5[nH]ccc45)CC3)nc2[nH]1 [Example B24′, 7-{4-[4-(1H-Indol-4-yl)-piperazin-1-yl]-butoxy}-1H-[1,8]naphthyridin-2-one] | 42%
O=c1ccc2ccc(OCCCCN3CCN(c4cccc5sccc45)CC3)nc2[nH]1 [Example B25′, 7-[4-(4-Benzo[b]thiophen-4-yl-piperazin-1-yl)-butoxy]-1H-[1,8]naphthyridin-2-one] | 21%
O=c1ccc2ccc(OCCCCN3CCN(c4cccc5ccoc45)CC3)nc2[nH]1 [Example B26′, 7-[4-(4-Benzofuran-7-yl-piperazin-1-yl)-butoxy]-1H-[1,8]naphthyridin-2-one] | 26%
CC(=O)N1CCCc2c(N3CCN(CCCCOc4ccc5ccc(=O)[nH]c5n4)CC3)cccc21 [Example B27′, 7-{4-[4-(1-Acetyl-1,2,3,4-tetrahydro-quinolin-5-yl)-piperazin-1-yl]-butoxy}-1H-[1,8]naphthyridin-2-one] | 34%
CN1CCCc2c1cccc2N1CCN(CCCCOc2ccc3ccc(=O)[nH]c3n2)CC1 [Example B28′, 7-{4-[4-(1-Methyl-1,2,3,4-tetrahydro-quinolin-5-yl)-piperazin-1-yl]-butoxy}-1H-[1,8]naphthyridin-2-one] | 44%
CCN1CCCc2c1cccc2N1CCN(CCCCOc2ccc3ccc(=O)[nH]c3n2)CC1 [Example B29′, 7-{4-[4-(1-Ethyl-1,2,3,4-tetrahydro-quinolin-5-yl)-piperazin-1-yl]-butoxy}-1H-[1,8]naphthyridin-2-one] | 26%
COc1ccc2cccc(N3CCN(CCCCOc4ccc5ccc(=O)[nH]c5n4)CC3)c2n1 [Example B30′, 7-{4-[4-(2-Methoxy-quinolin-8-yl)-piperazin-1-yl]-butoxy}-1H-[1,8]naphthyridin-2-one] | 42%
